# Source: US6777422B2, “Substituted tetrahydroisoquinolines as C5a receptor modulators” (Neurogen Corp., priority 2002, dated 2004)
# Target: T1, human C5a receptor (Homo sapiens, UniProt P21730)
# T1 construct: endogenous in cells; host or cells: U937 cells differentiated with 1 mM dibutyryl cAMP
# T1 sequence (P21730 1-350): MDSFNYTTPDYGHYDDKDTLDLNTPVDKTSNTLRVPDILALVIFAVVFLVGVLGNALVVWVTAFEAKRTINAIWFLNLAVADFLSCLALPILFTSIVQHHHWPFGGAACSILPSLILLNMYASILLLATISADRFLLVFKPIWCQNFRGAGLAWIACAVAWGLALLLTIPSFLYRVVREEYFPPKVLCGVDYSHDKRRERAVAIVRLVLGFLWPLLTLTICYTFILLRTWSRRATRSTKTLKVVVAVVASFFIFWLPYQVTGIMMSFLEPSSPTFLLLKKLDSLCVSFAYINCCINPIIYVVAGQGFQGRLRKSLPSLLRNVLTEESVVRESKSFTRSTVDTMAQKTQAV
# Experiment: C5a receptor mediated calcium mobilization assay (Example 20)
# Format: cell-based
# Details: differentiated U937 cells, read-out: Ca2+ (Ki in the standard assay of C5a receptor mediated calcium mobilization)
# Description: Calcium Mobilization Assays
# U937 cells are grown in differentiation media (1 mM dibutyryl cAMP in RPMI 1640 medium containing 10% fetal bovine serum) for 48 hrs at 37° C. then reseeded onto 96-well plates suitable for use in a FLIPR™ Plate Reader (Molecular Devices Corp., Sunnyvale Calif.). Cells are grown an additional 24 hours (to 70-90% confluence) before the assay. The cells are then washed once with Krebs Ringer solution. FLUO-3 calcium sensitive dye (Molecular Probes, Inc. Eugene, Oreg.) is added to 10 μg/mL and incubated with the cells at room temperature for 1 to 2 hours. The 96 well plates are then washed to remove excess dye. Fluorescence responses, measured by excitation at 480 nm and emission at 530 nm, are monitored upon the addition of human C5a to the cells to a final concentration of 0.01-30.0 nM, using the FLIPR™ device (Molecular Devices).
# C. Assays for the Identification of Receptor Modulatory Agents: Antagonists and Agonists
# The calcium mobilization assay described above may be readily adapted for identifying test compounds that have agonist or antagonist activity at the human C5a receptor.
# For example, in order to identify antagonist compounds, differentiated U937 cells are washed and incubated with Fluo-3 dye as described above. One hour prior to measuring the fluorescence signal, a subset of the cells is incubated with 1 μM of at least one compound to be tested. The fluorescence response upon the subsequent addition of 0.3 nM (final concentration) human recombinant C5a is monitored using the FLIPR™ plate reader. Antagonist compounds elicit at least a 2-fold decrease in the fluorescence response relative to that measured in the presence of human C5a alone. Preferred antagonist compounds elicit at least a 5-fold, preferably at least a 10-fold, and more preferably at least a 20-fold decrease in the fluorescence response relative to that measured in the presence of human C5a alone.
row,SMILES,Ki [nM]
1,"Cc1ccccc1[C@@H]1c2ccccc2CCN1[C@@H](C)C(=O)N(Cc1ccccc1F)C1Cc2ccccc2C1 (relative stereo) [Compound 19, N-(indan-2-yl)-N-(2-fluorobenzyl)-2-[1-(2-methylphenyl)-3,4-dihydroisoquinolin-2(1H)-yl]propanamide]",< 1000
2,"O=C(CN1CCc2ccccc2[C@H]1c1ccccc1Br)N(Cc1ccccc1F)C1Cc2ccccc2C1 (stereo in doubt) [Compound 22, 2-[1-(2-bromophenyl)-3,4-dihydroisoquinolin-2(1H)-yl]-N-(indan-2-yl)-N-(2-fluorobenzyl)acetamide]",< 1000
3,"Cc1ccccc1C1c2ccccc2CCN1CC(=O)N(Cc1ccccc1F)C1Cc2ccccc2C1 (stereo in doubt) [Compound 28, N-(indan-2-yl)-N-(2-fluorobenzyl)-2-[(1S)-1-(2-methylphenyl)-3,4-dihydroisoquinolin-2(1H)-yl]acetamide]",< 1000
4,"Cc1ccccc1C1c2ccccc2[C@@H](C)CN1CC(=O)N(Cc1ccccc1F)C1Cc2ccccc2C1 (stereo in doubt) [Compound 30, N-(2-Fluoro-benzyl)-N-indan-2-yl-2-(4-methyl-1-o-tolyl-3,4-dihydro-1H-isoquinolin-2-yl)-acetamide]",< 1000
5,"Cc1ccccc1[C@@H]1c2ccccc2CCN1[C@@H](C)C(=O)N(Cc1ccccc1F)C1Cc2ccccc2C1 (stereo in doubt) [Compound 34, (2S)-N-(indan-2-yl)-N-(2-fluorobenzyl)-2-[(1R)-1-(2-methylphenyl)-3,4-dihydroisoquinolin-2(1H)-yl]propanamide]",< 1000
6,"O=C(CN1CCc2ccccc2[C@H]1c1cccc(Cl)c1Cl)N(Cc1ccccc1F)C1Cc2ccccc2C1 (stereo in doubt) [Compound 36, 2-[1-(2,3-dichlorophenyl)-3,4-dihydroisoquinolin-2(1H)-yl]-N-(indan-2-yl)-N-(2-fluorobenzyl)acetamide]",< 1000
7,"Cc1ccccc1[C@H]1c2ccccc2CCN1[C@@H](C)C(=O)N(Cc1ccccc1F)C1Cc2ccccc2C1 (stereo in doubt) [Compound 39, (2S)-N-(indan-2-yl)-N-(2-fluorobenzyl)-2-[(1S)-1-(2-methylphenyl)-3,4-dihydroisoquinolin-2(1H)-yl]propanamide]",< 1000
8,"Cc1ccccc1[C@@H]1c2ccccc2[C@@H](C)CN1CC(=O)N(Cc1ccccc1F)C1Cc2ccccc2C1 (stereo in doubt) [Compound 46, N-(indan-2-yl)-N-(2-fluorobenzyl)-2-[(1R,4R)-4-methyl-1-(2-methylphenyl)-3,4-dihydroisoquinolin-2(1H)-yl]acetamide]",< 1000
9,"Cc1ccc(C)c([C@@H]2c3ccccc3CCN2CC(=O)N(Cc2ccccc2F)C2Cc3ccccc3C2)c1 (stereo in doubt) [Compound 49, N-(indan-2-yl)-2-[1-(2,5-dimethylphenyl)-3,4-dihydroisoquinolin-2(1H)-yl]-N-(2-fluorobenzyl)acetamide]",< 1000
10,"Cc1ccc(Cl)cc1[C@@H]1c2ccccc2CCN1CC(=O)N(Cc1ccccc1F)C1Cc2ccccc2C1 (stereo in doubt) [Compound 51, 2-[1-(5-chloro-2-methylphenyl)-3,4-dihydroisoquinolin-2(1H)-yl]-N-(indan-2-yl)-N-(2-fluorobenzyl)acetamide]",< 1000
11,"Cc1ccc(Cl)c([C@@H]2c3ccccc3CCN2CC(=O)N(Cc2ccccc2F)C2Cc3ccccc3C2)c1 (stereo in doubt) [Compound 52, 2-[1-(2-chloro-5-methylphenyl)-3,4-dihydroisoquinolin-2(1H)-yl]-N-(indan-2-yl)-N-(2-fluorobenzyl)acetamide]",< 1000
12,"Cc1ccccc1[C@@H]1c2c(ccc(C)c2C)CCN1CC(=O)N(Cc1ccccc1F)C1Cc2ccccc2C1 (stereo in doubt) [Compound 73, N-(indan-2-yl)-2-[7,8-dimethyl-1-(2-methylphenyl)-3,4-dihydroisoquinolin-2(1H)-yl]-N-(2-fluorobenzyl)acetamide]",< 1000
13,"Cc1ccccc1[C@@H]1c2c(C)cccc2CCN1CC(=O)N(Cc1ccccc1F)C1Cc2ccccc2C1 (stereo in doubt) [Compound 78, N-(indan-2-yl)-N-(2-fluorobenzyl)-2-[8-methyl-1-(2-methylphenyl)-3,4-dihydroisoquinolin-2(1H)-yl]acetamide]",< 1000
14,"COc1cccc2c1C(c1ccccc1C)N(CC(=O)N(Cc1ccccc1F)C1Cc3ccccc3C1)CC2 (centres unmarked) [Compound 14, N-(indan-2-yl)-N-(2-fluorobenzyl)-2-[8-methoxy-1-(2-methylphenyl)-3,4-dihydroisoquinolin-2(1H)-yl]acetamide]",< 1000
15,"CCC1(c2ccccc2C)c2ccccc2CCN1CC(=O)N(Cc1ccccc1F)C1Cc2ccccc2C1 (centres unmarked) [Compound 16, N-(indan-2-yl)-2-[1-ethyl-1-(2-methylphenyl)-3,4-dihydroisoquinolin-2(1H)-yl]-N-(2-fluorobenzyl)acetamide]",< 1000
16,"COc1ccccc1C1c2ccccc2CCN1CC(=O)N(Cc1ccccc1F)C1Cc2ccccc2C1 (centres unmarked) [Compound 24, N-(indan-2-yl)-N-(2-fluorobenzyl)-2-[1-(2-methoxyphenyl)-3,4-dihydroisoquinolin-2(1H)-yl]acetamide]",< 1000
17,"Cc1cccc(C2c3ccccc3CCN2CC(=O)N(Cc2ccccc2F)C2Cc3ccccc3C2)c1C (centres unmarked) [Compound 25, N-(indan-2-yl)-2-[1-(2,3-dimethylphenyl)-3,4-dihydroisoquinolin-2(1H)-yl]-N-(2-fluorobenzyl)acetamide]",< 1000
18,"Cc1ccccc1[C@@H]1c2ccccc2CCN1CC(=O)N(Cc1ccccc1F)C1Cc2ccccc2C1 [Compound 26, N-(indan-2-yl)-N-(2-fluorobenzyl)-2-[(1R)-1-(2-methylphenyl)-3,4-dihydroisoquinolin-2(1H)-yl]acetamide]",< 1000
19,"Cc1ccccc1C1c2ccccc2[C@@H](C)CN1CC(=O)N(Cc1ccccc1F)C1Cc2ccccc2C1 (stereo partly drawn) [Compound 27, N-(indan-2-yl)-N-(2-fluorobenzyl)-2-[(4R)-4-methyl-1-(2-methylphenyl)-3,4-dihydroisoquinolin-2(1H)-yl]acetamide]",< 1000
20,"CCc1ccccc1C1c2ccccc2CCN1CC(=O)N(Cc1ccccc1F)C1Cc2ccccc2C1 (centres unmarked) [Compound 29, N-(indan-2-yl)-2-[1-(2-ethylphenyl)-3,4-dihydroisoquinolin-2(1H)-yl]-N-(2-fluorobenzyl)acetamide]",< 1000
21,"Cc1ccccc1C1c2ccccc2CCN1Cc1cnc(-c2ccccc2)n1C1Cc2ccccc2C1 (centres unmarked) [Compound 33, 2-{[1-(indan-2-yl)-2-phenyl-1H-imidazol-5-yl]methyl}-1-(2-methylphenyl)-1,2,3,4-tetrahydroisoquinoline]",< 1000
22,"Cc1ccc(C2c3ccccc3CCN2CC(=O)N(Cc2ccccc2F)C2Cc3ccccc3C2)cc1C (centres unmarked) [Compound 35, N-(indan-2-yl)-2-[1-(3,4-dimethylphenyl)-3,4-dihydroisoquinolin-2(1H)-yl]-N-(2-fluorobenzyl)acetamide]",< 1000
23,"O=C(CN1CCc2ccccc2C1c1ccc(F)cc1C(F)(F)F)N(Cc1ccccc1F)C1Cc2ccccc2C1 (centres unmarked) [Compound 37, N-(indan-2-yl)-N-(2-fluorobenzyl)-2-[1-[4-fluoro-2-(trifluoromethyl)phenyl]-3,4-dihydroisoquinolin-2(1H)-yl]acetamide]",< 1000
24,"O=C(CN1CCc2ccccc2C1c1cc(F)ccc1C(F)(F)F)N(Cc1ccccc1F)C1Cc2ccccc2C1 (centres unmarked) [Compound 38, N-(indan-2-yl)-N-(2-fluorobenzyl)-2-[1-[5-fluoro-2-(trifluoromethyl)phenyl]-3,4-dihydroisoquinolin-2(1H)-yl]acetamide]",< 1000

# Same assay, conditions: differentiated U937 cells, unit inferred, read-out: Ca2+ (numeric value, C5a receptor mediated calcium mobilization)
row,SMILES,Ki [nM]
1,"Cc1ccccc1[C@@H]1C2=C(CCCC2)CCN1CC(=O)N(Cc1ccccc1F)C1Cc2ccccc2C1 (stereo in doubt) [Compound 131, N-(2-Fluoro-benzyl)-N-indan-2-yl-2-(1-o-tolyl-3,4,5,6,7,8-hexahydro-1H-isoquinolin-2-yl)-acetamide]",13.1
2,"Cc1ccccc1[C@@H]1CCCCN1[C@@H](C)C(=O)N(Cc1ccccc1F)C1Cc2ccccc2C1 (stereo in doubt) [Compound 132, N-(2-Fluoro-benzyl)-N-indan-2-yl-2-(2-o-tolyl-piperidin-1-yl)-propionamide]",115
